Source: ChEMBL document CHEMBL4507268 (2021)

Key:
Conditions in all cases: Compound concentration 1000.0 nM
[1] = target: Epithelial discoidin domain-containing receptor 1 (Homo sapiens) (UniProt Q08345)
[2] = target: Myosin light chain kinase family member 4 (Homo sapiens) (UniProt Q86YV6)
[3] = target: Mitogen-activated protein kinase kinase kinase 20 (Homo sapiens) (UniProt Q9NYL2)
[4] = target: Serine/threonine-protein kinase MARK2 (Homo sapiens) (UniProt Q7KZI7)
[5] = target: Megakaryocyte-associated tyrosine-protein kinase (Homo sapiens) (UniProt P42679)
[6] = target: Serine/threonine-protein kinase PAK 5 (Homo sapiens) (UniProt Q9P286)
[7] = target: T1, Serine/threonine-protein kinase Sgk1 (Homo sapiens) (UniProt O00141)
T1 sequence (whole entry): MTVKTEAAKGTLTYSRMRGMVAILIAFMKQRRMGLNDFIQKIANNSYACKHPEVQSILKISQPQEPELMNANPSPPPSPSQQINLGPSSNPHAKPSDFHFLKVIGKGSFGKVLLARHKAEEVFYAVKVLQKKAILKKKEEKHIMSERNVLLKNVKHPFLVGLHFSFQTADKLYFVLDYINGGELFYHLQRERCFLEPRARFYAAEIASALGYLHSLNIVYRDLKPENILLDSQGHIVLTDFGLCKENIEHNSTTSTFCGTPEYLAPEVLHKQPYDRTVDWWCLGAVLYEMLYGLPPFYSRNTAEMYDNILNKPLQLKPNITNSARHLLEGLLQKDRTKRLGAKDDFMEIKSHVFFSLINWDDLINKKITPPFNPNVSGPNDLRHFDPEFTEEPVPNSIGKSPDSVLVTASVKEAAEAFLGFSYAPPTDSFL

[8] = target: Casein kinase II subunit alpha' (Homo sapiens) (UniProt P19784)
[9] = target: Mitogen-activated protein kinase kinase kinase 11 (Homo sapiens) (UniProt Q16584)
[10] = target: Calcium/calmodulin-dependent protein kinase type II subunit beta (Homo sapiens) (UniProt Q13554)
[11] = target: STE20/SPS1-related proline-alanine-rich protein kinase (Homo sapiens) (UniProt Q9UEW8)
[12] = system: Tyrosine-protein kinase ABL1 (Homo sapiens), P00519 [Y253F]
[13] = target: Calcium/calmodulin-dependent protein kinase type II subunit alpha (Homo sapiens) (UniProt Q9UQM7)
[14] = system: Tyrosine-protein kinase ABL1 (Homo sapiens), P00519 [F317I]
[15] = target: Proto-oncogene tyrosine-protein kinase Src (Homo sapiens) (UniProt P12931)
[16] = target: T2, Ephrin type-B receptor 2 (Homo sapiens) (UniProt P29323)
T2 sequence (whole entry): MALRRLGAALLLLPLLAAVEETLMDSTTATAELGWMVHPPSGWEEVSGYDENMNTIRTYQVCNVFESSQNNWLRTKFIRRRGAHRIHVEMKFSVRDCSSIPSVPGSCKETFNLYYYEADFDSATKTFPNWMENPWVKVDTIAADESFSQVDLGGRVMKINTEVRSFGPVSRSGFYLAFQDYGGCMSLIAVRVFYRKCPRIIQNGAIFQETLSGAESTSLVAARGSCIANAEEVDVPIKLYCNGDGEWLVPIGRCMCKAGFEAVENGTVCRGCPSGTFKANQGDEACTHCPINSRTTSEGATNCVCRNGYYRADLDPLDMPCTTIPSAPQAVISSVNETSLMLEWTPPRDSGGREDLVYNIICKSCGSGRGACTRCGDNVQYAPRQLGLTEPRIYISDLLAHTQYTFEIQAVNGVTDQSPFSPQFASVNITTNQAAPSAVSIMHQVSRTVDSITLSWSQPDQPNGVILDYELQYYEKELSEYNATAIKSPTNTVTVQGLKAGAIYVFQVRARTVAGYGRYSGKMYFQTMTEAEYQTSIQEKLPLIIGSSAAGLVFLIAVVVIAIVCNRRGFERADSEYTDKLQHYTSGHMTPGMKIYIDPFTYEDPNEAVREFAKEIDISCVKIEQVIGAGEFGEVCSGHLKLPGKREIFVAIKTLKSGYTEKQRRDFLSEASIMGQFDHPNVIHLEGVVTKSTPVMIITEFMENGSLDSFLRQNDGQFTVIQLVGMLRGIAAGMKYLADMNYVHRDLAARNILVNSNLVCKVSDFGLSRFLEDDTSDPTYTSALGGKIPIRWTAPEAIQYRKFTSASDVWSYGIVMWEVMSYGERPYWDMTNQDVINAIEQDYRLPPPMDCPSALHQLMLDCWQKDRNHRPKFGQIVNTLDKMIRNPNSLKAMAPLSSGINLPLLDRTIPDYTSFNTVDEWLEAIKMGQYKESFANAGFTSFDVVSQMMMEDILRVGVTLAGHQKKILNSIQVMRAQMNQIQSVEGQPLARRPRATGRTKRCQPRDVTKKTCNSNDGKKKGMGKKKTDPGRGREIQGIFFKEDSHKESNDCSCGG

Measured: residual activity

Chain of Proto-oncogene tyrosine-protein kinase Src (Homo sapiens) (P12931 2-536 limits assumed): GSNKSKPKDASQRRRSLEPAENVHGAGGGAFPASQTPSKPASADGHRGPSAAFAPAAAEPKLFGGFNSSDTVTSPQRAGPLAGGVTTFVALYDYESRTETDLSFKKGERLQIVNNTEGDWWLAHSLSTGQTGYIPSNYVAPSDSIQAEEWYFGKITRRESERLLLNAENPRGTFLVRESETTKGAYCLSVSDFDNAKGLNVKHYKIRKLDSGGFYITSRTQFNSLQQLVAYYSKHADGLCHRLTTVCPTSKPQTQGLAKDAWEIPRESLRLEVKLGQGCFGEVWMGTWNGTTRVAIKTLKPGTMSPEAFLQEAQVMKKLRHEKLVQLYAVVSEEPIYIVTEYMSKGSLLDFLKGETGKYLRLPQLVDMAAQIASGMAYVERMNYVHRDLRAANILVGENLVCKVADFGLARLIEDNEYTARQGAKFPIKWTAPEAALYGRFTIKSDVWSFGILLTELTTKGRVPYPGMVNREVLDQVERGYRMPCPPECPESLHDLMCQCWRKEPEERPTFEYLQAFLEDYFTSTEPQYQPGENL
Chain of Serine/threonine-protein kinase MARK2 (Homo sapiens) (Q7KZI7 whole entry): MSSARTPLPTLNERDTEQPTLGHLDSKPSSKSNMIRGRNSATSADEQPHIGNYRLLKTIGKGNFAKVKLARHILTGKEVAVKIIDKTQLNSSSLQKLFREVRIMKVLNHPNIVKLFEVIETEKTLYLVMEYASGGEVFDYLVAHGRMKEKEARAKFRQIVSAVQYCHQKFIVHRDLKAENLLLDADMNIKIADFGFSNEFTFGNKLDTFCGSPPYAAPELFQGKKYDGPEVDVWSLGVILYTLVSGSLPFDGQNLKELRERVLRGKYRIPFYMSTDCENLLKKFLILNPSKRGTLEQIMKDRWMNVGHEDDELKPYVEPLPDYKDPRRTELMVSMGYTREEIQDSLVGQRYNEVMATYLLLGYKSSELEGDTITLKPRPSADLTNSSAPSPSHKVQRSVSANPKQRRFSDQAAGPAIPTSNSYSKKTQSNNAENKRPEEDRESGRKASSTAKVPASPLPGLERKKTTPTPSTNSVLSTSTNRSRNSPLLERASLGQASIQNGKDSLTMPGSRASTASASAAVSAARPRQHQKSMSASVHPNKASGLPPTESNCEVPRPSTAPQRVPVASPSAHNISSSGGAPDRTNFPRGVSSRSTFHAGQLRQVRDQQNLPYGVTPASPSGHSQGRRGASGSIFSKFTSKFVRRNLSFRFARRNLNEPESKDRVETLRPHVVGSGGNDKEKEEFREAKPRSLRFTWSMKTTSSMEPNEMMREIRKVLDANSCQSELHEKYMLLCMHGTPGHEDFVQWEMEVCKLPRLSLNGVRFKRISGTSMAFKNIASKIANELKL
Chain of Myosin light chain kinase family member 4 (Homo sapiens) (Q86YV6 whole entry): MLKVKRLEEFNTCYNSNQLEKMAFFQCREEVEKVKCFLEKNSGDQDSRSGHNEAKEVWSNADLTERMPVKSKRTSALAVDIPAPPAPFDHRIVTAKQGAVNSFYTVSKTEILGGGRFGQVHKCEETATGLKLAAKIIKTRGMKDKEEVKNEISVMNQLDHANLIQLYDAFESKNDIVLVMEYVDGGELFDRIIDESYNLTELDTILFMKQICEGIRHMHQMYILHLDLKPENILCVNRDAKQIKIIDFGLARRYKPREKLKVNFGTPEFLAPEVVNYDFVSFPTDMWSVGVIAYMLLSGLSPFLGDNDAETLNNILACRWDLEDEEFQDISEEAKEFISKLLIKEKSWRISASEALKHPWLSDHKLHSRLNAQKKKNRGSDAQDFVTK
Chain of Casein kinase II subunit alpha' (Homo sapiens) (P19784 whole entry, looked up): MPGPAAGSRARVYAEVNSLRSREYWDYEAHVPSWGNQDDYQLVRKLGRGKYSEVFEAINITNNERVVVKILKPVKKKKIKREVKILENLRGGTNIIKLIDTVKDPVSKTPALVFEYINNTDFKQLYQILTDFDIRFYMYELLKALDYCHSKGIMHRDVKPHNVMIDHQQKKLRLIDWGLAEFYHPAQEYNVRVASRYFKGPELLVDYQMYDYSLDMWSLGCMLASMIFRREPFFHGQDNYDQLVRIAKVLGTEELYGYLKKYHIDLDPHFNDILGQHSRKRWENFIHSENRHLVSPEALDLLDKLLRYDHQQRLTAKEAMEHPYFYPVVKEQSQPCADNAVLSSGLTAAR
Chain of Serine/threonine-protein kinase PAK 5 (Homo sapiens) (Q9P286 whole entry, looked up): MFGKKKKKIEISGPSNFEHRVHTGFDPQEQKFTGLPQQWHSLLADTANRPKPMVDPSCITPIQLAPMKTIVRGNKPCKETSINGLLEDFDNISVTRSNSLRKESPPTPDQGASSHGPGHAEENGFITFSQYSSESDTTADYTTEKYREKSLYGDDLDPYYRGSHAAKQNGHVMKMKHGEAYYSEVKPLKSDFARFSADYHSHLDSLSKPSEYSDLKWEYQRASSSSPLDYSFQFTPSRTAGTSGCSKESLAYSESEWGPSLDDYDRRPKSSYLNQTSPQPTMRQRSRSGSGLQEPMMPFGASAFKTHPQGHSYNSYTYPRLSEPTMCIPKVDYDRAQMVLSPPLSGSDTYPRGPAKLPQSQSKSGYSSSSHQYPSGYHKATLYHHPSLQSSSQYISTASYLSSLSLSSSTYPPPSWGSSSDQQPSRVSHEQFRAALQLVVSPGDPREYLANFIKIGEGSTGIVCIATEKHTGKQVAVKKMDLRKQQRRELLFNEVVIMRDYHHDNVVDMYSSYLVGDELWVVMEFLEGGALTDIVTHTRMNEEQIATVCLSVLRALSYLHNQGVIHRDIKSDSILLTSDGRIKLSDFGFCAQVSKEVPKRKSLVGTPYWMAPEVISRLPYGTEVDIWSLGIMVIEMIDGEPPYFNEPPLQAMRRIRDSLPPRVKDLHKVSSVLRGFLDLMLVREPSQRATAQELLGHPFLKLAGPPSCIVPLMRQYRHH
Chain of Calcium/calmodulin-dependent protein kinase type II subunit beta (Homo sapiens) (Q13554 whole entry): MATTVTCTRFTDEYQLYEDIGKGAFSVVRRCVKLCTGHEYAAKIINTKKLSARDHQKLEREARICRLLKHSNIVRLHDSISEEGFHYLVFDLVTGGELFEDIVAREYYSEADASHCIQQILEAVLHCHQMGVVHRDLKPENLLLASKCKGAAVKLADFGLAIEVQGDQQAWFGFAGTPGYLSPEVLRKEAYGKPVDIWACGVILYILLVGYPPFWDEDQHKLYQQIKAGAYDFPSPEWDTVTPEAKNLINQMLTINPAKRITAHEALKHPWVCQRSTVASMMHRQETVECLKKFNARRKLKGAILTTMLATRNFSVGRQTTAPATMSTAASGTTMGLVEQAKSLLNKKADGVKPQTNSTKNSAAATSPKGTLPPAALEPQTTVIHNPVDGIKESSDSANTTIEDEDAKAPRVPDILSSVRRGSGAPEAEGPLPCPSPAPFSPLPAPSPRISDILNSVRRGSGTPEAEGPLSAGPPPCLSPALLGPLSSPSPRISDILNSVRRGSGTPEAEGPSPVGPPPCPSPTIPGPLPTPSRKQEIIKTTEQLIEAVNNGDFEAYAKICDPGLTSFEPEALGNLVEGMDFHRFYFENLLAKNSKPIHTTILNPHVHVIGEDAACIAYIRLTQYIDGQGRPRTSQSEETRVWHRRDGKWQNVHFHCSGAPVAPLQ
Chain of Mitogen-activated protein kinase kinase kinase 11 (Homo sapiens) (Q16584 whole entry, looked up): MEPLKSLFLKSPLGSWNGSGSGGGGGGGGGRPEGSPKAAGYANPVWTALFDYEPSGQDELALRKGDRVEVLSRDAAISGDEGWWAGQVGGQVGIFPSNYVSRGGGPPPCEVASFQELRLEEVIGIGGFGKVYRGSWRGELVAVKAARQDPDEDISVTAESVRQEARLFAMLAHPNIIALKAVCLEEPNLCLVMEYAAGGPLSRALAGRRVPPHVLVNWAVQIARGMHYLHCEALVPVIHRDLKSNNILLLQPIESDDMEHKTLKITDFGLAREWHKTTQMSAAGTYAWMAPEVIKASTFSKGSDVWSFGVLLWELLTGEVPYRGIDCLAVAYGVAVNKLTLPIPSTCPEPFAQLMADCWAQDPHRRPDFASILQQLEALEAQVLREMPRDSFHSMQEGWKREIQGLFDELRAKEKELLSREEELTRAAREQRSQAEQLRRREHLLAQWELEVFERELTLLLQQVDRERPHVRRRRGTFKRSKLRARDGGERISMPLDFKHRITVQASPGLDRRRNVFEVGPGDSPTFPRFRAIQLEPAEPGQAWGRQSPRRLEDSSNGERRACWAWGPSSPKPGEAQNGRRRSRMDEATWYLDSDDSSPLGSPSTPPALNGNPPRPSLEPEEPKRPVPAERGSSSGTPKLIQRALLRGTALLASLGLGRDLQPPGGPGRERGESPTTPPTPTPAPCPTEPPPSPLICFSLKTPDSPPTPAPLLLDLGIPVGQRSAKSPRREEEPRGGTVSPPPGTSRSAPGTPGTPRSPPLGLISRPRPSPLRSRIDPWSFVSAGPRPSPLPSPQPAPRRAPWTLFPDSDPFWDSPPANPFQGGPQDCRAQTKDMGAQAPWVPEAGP
Chain of Megakaryocyte-associated tyrosine-protein kinase (Homo sapiens) (P42679 whole entry): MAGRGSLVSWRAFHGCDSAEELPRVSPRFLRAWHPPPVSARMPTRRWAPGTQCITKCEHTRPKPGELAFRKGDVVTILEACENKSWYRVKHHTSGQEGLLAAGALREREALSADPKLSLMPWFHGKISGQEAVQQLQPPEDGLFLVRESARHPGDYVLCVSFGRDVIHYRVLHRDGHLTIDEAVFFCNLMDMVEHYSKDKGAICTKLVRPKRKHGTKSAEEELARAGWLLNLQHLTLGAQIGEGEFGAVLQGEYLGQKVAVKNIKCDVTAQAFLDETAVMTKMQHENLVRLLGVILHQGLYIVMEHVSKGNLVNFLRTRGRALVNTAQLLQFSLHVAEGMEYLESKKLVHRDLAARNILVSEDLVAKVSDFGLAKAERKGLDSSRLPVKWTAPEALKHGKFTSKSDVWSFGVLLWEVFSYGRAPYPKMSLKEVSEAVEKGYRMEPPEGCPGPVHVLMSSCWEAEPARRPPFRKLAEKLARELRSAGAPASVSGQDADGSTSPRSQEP

CN1CCN(c2cnc3c(C4CCN(C(=O)c5ccc(OC(F)(F)F)cc5N)CC4)ncnc3c2)CC1 [BAY-885]
inactive: [1] 100% | [2] 100% | [3] 98% | [4] 100% | [5] 100% | [6] 100% | [7] 100% | [8] 93% | [9] 100% | [10] 100% | [11] 81% | [12] 100% | [13] 69% | [14] 100% | [15] 100% | [16] 78%

Cc1nc(C2CCN(C(=O)c3ccc(OC(F)(F)F)cc3N)CC2)c2ncc(N3CCN(C)CC3)cc2n1 [BAY-693]
inactive: [1] 100% | [2] 100% | [3] 95% | [4] 100% | [5] 100% | [6] 99% | [7] 100% | [8] 85% | [9] 100% | [10] 100% | [11] 100% | [12] 98% | [13] 93% | [14] 100% | [15] 99% | [16] 100%
